Measured values taken from PubChem BioAssay (NCI).
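How tested: cells in 96-well plates exposed to compound for 48 hours at five concentrations. At the TGI there is no net growth.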 *1 amine or outer side, *2 acyl side, *3 side chain or, on linkers, in order; H or OH if unused. Where a SMILES comes first, the peptide text is derived from it. Bridges are numbered along the chain shown (N, C = ends). Roman numbers before positions name the chains, in order. [ ]: non-standard residue; d: D form. Actinocin(9to1) = Cc1c2oc3c(C)ccc(C(=O)[*:1])c3nc-2c(C(=O)[*:2])c(N)c1=O; NMeV = CN[CH](C(=O)O)C(C)C; Sar = CNCC(=O)O

What was measured:
Experiment in all cases: NCI tumour cell line growth inhibition, 48 h
M19-MEL melanoma = tested on: M19-MEL melanoma
KM20L2 colon = tested on: KM20L2 colon
DMS 273 small cell lung = tested on: DMS 273 small cell lung
HOP-18 NSCLC = tested on: HOP-18 NSCLC
HOP-92 NSCLC = tested on: HOP-92 NSCLC
UO-31 renal = tested on: UO-31 renal
DLD-1 colon = tested on: DLD-1 colon
UACC-62 melanoma = tested on: UACC-62 melanoma
SK-MEL-28 melanoma = tested on: SK-MEL-28 melanoma
OVCAR-3 ovarian = tested on: OVCAR-3 ovarian
HCT-15 colon = tested on: HCT-15 colon
DMS 114 small cell lung = tested on: DMS 114 small cell lung
XF 498 CNS = tested on: XF 498 CNS
LXFL 529 NSCLC = tested on: LXFL 529 NSCLC
SNB-78 CNS = tested on: SNB-78 CNS
MDA-N = tested on: MDA-N
RXF-631 renal = tested on: RXF-631 renal
SN12K1 renal = tested on: SN12K1 renal
P388 leukemia = tested on: P388 leukemia
P388/ADR leukemia = tested on: P388/ADR leukemia

Structure (SMILES) | TGI (M19-MEL melanoma) [µM] | TGI (KM20L2 colon) [µM] | TGI (DMS 273 small cell lung) [µM] | TGI (HOP-18 NSCLC) [µM] | TGI (HOP-92 NSCLC) [µM] | TGI (UO-31 renal) [µM] | TGI (DLD-1 colon) [µM] | TGI (UACC-62 melanoma) [µM] | TGI (SK-MEL-28 melanoma) [µM] | TGI (OVCAR-3 ovarian) [µM] | TGI (HCT-15 colon) [µM] | TGI (DMS 114 small cell lung) [µM] | TGI (XF 498 CNS) [µM] | TGI (LXFL 529 NSCLC) [µM] | TGI (SNB-78 CNS) [µM] | TGI (MDA-N) [µM] | TGI (RXF-631 renal) [µM] | TGI (SN12K1 renal) [µM] | TGI (P388 leukemia) [µM] | TGI (P388/ADR leukemia) [µM]
COc1cc2c(cc1O)[C@H](C)C(c1ccc(OC)c(OC)c1)O2 (stereo partly specified) | 12.2 | 38.2 | 15.4 | 20 | 23.1 | 64 | 21.3 | 10.1 | 23 | 16.6 | 13.3 | 13.8 | 21.8 | 21.5 | 64.7 |  |  |  |  | 
O=C1C(Br)=C(Br)C(=O)c2ccc(=O)ccc21 | 32.5 | > 100 | > 100 | 57 | 34.8 | 34.9 | 46.6 | 39.4 | 52 | 41.8 | 38.7 | 39.2 | 43.2 | 31.7 | > 100 | 44.8 | 39.7 |  |  | 
CCCC/C=C/C=C/C=C/CCCCCCCC(=O)OCC(COC(=O)CCCCCCC/C=C/C1C=CC(CCCC)C(C(=O)O)C1C(=O)O)OC(=O)CCCCCCC/C=C/C=C/C=C/CCCC (stereo unspecified) (tested in a mixture with another compound) | 36.9 | 48.1 | 29.9 | 47.8 | 48.1 | 34.7 | 40 | 29.1 | 33.3 | 38.3 | 30.8 | 23.1 |  | 32.8 |  |  |  |  |  | 
COc1ccc(C2Oc3cc(OC)c(OC)cc3C2CCl)cc1OC (stereo unspecified) | > 100 | > 100 | > 100 |  | > 100 | > 100 | > 100 | 79.5 | > 100 | > 100 | > 100 | > 100 | > 100 | > 100 |  |  |  |  |  | 
O=c1[nH]c2cc(Cl)ccc2nc1/C(=N\Nc1ccccc1)C(O)c1ccc(Cl)c(Cl)c1 (stereo unspecified) | > 100 | > 100 | > 100 |  | > 100 | > 100 | > 100 | > 100 |  | > 100 | > 100 | > 100 |  | > 100 | > 100 |  | > 100 |  |  | 
COc1cc(C2C(Cl)C(=O)N2n2cnc3ccccc3c2=O)ccc1O (stereo unspecified) | > 100 | > 100 | > 100 | > 100 |  | > 100 | > 100 | > 100 | > 100 | > 100 | > 100 | > 100 |  | > 100 | > 100 |  |  |  |  | 
CNC(=O)NCCCC(NC(C)=O)C(=O)NCc1ccccc1 (stereo unspecified) | > 100 | > 100 | > 100 |  | > 100 | > 100 | > 100 | > 100 | > 100 | > 100 | > 100 | > 100 |  | > 100 | > 100 |  | > 100 |  |  | 
COCCOCOC(CCCCO)c1cc(C)c(O[Si](C)(C)C(C)(C)C)c(C)c1 (stereo unspecified) | 18 | 17.9 |  | 30.8 |  | 17.2 |  | 25.4 | 25.2 | 19.2 | 21.1 | 10.2 |  | 22.6 |  |  |  |  |  | 
CCNC(=O)c1ccc(C)c(N=NN(C)C)c1 | > 100 | > 100 | > 100 |  | > 100 | > 100 | > 100 | > 100 | > 100 | > 100 | > 100 |  |  | > 100 | > 100 |  |  |  |  | 
O=C(Nc1c(O)[nH]c(=S)[nH]c1=O)c1ccccc1 | > 100 | > 100 |  | > 100 | > 100 | > 100 | > 100 | > 100 | > 100 | > 100 | > 100 | > 100 |  | > 100 | > 100 |  |  |  |  | 
Cc1c2oc3c(C)ccc(C(=O)NC4C(=O)NC(C(C)C)C(=O)N5CCCC5C(=O)N(C)CC(=O)N(C)C(C(C)C)C(=O)OC4C)c3nc-2c(C(=O)NC2C(=O)NC(C(C)C)C(=O)N3CCCC3C(=O)N(C)CC(=O)N(C)C(C(C)C)C(=O)OC2C)c(N)c1=O (stereo unspecified) (I: TVP[Sar][NMeV] / II: TVP[Sar][NMeV]; ester I:1-I:C, II:1-II:C; linker I:N-II:N via Actinocin(9to1); configuration not given here) |  |  |  |  | 0.0203 | 0.12 |  | 0.00192 | 0.0125 | 0.00907 | > 1 |  |  |  |  | 0.0094 |  |  |  | 
CC1(C)[C@@H](Cn2cc(I)c(=O)[nH]c2=O)CC[C@@]1(C)CO |  |  |  |  | > 100 | > 100 |  | > 100 | > 100 | > 100 | > 100 |  |  |  |  | > 100 |  |  |  | 
COc1ccc2oc3c(C)cc4c(OC)nnc(OC)c4c3c2c1 |  |  |  |  | > 100 | > 100 |  | > 100 | > 100 | > 100 | 63.9 |  |  |  |  | > 100 |  |  |  | 
S=P1(Oc2ccccc2)NNP2(=NP(N3CC3)(N3CC3)=NP(N3CC3)(N3CC3)=N2)NN1 (stereo unspecified) | > 100 |  | > 100 | > 100 |  | > 100 | > 100 | > 100 | > 100 | > 100 | > 100 | > 100 | > 100 | > 100 |  |  | > 100 |  |  | 
Cc1ccc(S[C@@H](C)[C@@](O)(CF)CN(Cc2ccccc2)C(=O)C(F)(F)F)cc1 |  |  |  |  | > 100 | 31 |  | 34.8 | > 100 | 27 | 55.5 |  |  |  |  | 62.7 |  |  |  | 
COc1ccc(S(=O)(=O)n2c3c(c4ccccc42)[C@@H]2[C@@H](CCCN2C(=O)CS(=O)c2ccc(C)cc2)[C@H](Cl)C3)cc1 (stereo partly specified) |  |  |  |  | > 100 | > 100 |  | > 100 | > 100 | > 100 | > 100 |  |  |  |  | > 100 |  |  |  | 
Cc1ccc(C(=O)OC(C(=O)O)C(OC(=O)c2ccc(C)cc2)C(=O)O)cc1 (stereo unspecified) (tested in a mixture with another compound) | 15.1 | 13 | 10.7 | 4.39 | 11.8 | 14.5 | 21.3 | 19.3 | 19.7 | 22.4 | 17.6 | 12.9 | 10.2 |  | 33.8 |  |  | 8.41 | 7.53 | 11.7
C/C(CN1C(=O)c2ccccc2C1=O)=N\NS(=O)(=O)c1ccc(Cl)cc1 | > 100 | > 100 | > 100 | > 100 |  | > 100 | > 100 | > 100 |  | > 100 | > 100 |  | > 100 | > 100 | > 100 |  | > 100 |  |  | 
O=C1c2ccccc2C(=O)c2c(/C=C\N3CCCCC3)ccnc21 | 0.563 | 32.6 | 10.4 | 2.96 | 32.1 | 23.4 | 15.8 | 1.58 | 2.96 | 9.53 | 6.41 | 4.2 | 27.2 | 15 | 61.8 | 0.352 | > 45.8 |  |  | 
O=c1c(F)cn(Cc2c(Cl)cccc2Cl)c(=O)n1Cc1c(Cl)cccc1Cl |  |  |  |  | > 31.6 | > 31.6 |  | > 31.6 | > 31.6 | > 31.6 | > 31.6 |  |  |  |  | > 31.6 |  |  |  | 
NC(Cc1ccccc1)C(=O)NC(Cc1ccccc1)NC(=O)C(Cc1c[nH]c2ccccc12)C(=O)O (stereo unspecified) |  |  |  |  | > 100 | > 100 |  | > 100 | > 100 | > 100 | > 100 |  |  |  |  | > 100 |  |  |  | 
CCOC(=O)C(=[N+]=[N-])C(=O)CN1C(=O)c2ccccc2C1=O |  |  |  |  | > 100 | > 100 |  | > 100 | > 100 | > 100 | > 100 |  |  |  |  | > 100 |  |  |  | 
CCn1cnc2c(=S)nc(N)[nH]c21 | > 100 | > 100 | > 100 |  |  | > 100 | > 100 | > 100 | > 100 | > 100 | > 100 | > 100 |  | > 100 | > 100 |  |  |  |  | 
